Assay results reported in US20030215817A1, “Modulation of gene expression in formation of fatty atherosclerotic lesions” (priority 2003, published 2003).
Where a name gives a salt, the structure may show the parent alone.

How the values were obtained:
Assay type in all cases: in vivo, rabbit
[1] = tested on: REC1_2 (MspI AATC 108) mRNA; assay: TOGA analysis, REC1_2
Procedure: (§1) To perform the studies, New Zealand male rabbits weighing 2.0-2.5 kg (Charles River, Calco, Italy) were used. The rabbits were divided into three groups and maintained in identical experimental conditions: (1) control group (n=15); rabbits fed a cholesterol-rich diet; (2) lercanidipine-treated group (n=15); rabbits fed a cholesterol-rich diet and also treated with lercanidipine (3 mg/kg/week); and (3) (R)-lercanidipine-treated group (n=5); rabbits fed a cholesterol-rich diet and also treated with the (R)-enantiomer of lercanidipine (3 mg/kg/week). After a 2 week period of subcutaneous, once a week, pretreatment with 3 mg/kg/week of lercanidipine or (R)-lercanidipine, the rabbits received a daily cholesterol supplement for up to 8 weeks or 2 weeks, respectively. In the following examples, use of the term “lercanidipine” refers to the racemic mixture of lercanidipine hydrochloride, whereas “(R)-lercanidipine” refers to the (R)-enantiomer of lercanidipine hydrochloride.
(§2) The mRNA from the above-described groups was isolated from aorta at different time points, resulting in the following mRNA samples: (1) Day 0 Control=no administered cholesterol, no lercanidipine; (2) Day 0+lercanidipine=no administered cholesterol, treatment with lercanipidine (2 weeks; 3 mg/kg/week); (3) Day 14 Control=cholesterol diet for two weeks, no lercanidipine; (4) Day 14+lercanidipine=cholesterol diet for two weeks, treatment with lercanidipine (four weeks; 3 mg/kg/week); (5) Week 8 Control=cholesterol diet for 8 weeks, no lercanidipine; and (6) Week 8+lercanidipine=cholesterol diet for 8 weeks, treatment with lercanidipine (10 weeks; 3 mg/kg/week). In addition, Day 14+(R)-lercanidipine mRNA samples were prepared from rabbits given a cholesterol diet for two weeks and treated with 3 mg/kg/week (R)-lercanidipine for four weeks.
(§3) Aorta mRNAs were prepared in the following manner. First, the aortas from each experimental group were retrieved and shredded using a polytron homogenizer. The samples were further homogenized using a teflon pestle, after which the cellular debris, nuclei, and blood cells were pelleted by centrifugation. The supernatants were extracted twice with phenol-chloroform-isoamyl alcohol and once with chloroform-isoamyl alcohol. RNA was then precipitated from the aqueous phase with ethanol. The poly A+ mRNA was prepared using standard methods of polyA selection known in the art (Schriber et al., J. Mol. Biol., 142:93-116 (1980)).
(§4) The isolated mRNA was analyzed using a method of simultaneous sequence-specific identification of mRNAs known as TOGA, described in U.S. Pat. No. 5,459,037 and U.S. Pat. No. 5,807,680, hereby incorporated herein by reference. In a preferred embodiment, the TOGA method further comprised an additional PCR step performed using a mixture of four 5′ PCR primers and cDNA templates prepared from a population of antisense cRNAs. A final PCR step that used a mixture of 256 5′ PCR primers produced PCR products that were cDNA fragments that corresponded to the 3′-region of the starting mRNA population. The produced PCR products were then identified by: (a) the initial 5′ sequence comprising the sequence remainder of the recognition site of the restriction endonuclease used to cut and isolate the 3′ region plus the sequence of the preferably four parsing bases immediately 3′ to the remainder of the recognition site, preferably the sequence of the entire fragment; and (b) the length of the fragment. […]

[2] = tested on: REC1_18 (MspI TGGT 241) mRNA; assay: TOGA analysis, REC1_18
Procedure: as §1, §2, §3, §4

REC1_16 (TCGG 195) mRNA = assay: TOGA analysis, REC1_16
Procedure: as §1, §2, §3, §4

[3] = tested on: REC1_8 (MspI CCCG 243) mRNA; assay: TOGA analysis, REC1_8
Procedure: as §1, §2, §3, §4

[4] = tested on: REC1_21 (TTCC 165) mRNA, elastin gene; assay: TOGA analysis, REC1_21
Procedure: as §1, §2, §3, §4

[5] = tested on: REC1_13 (MspI GCCC 216) mRNA; assay: TOGA analysis, REC1_13
Procedure: as §1, §2, §3, §4

REC1_19 (TGTT 393) mRNA = assay: TOGA analysis, REC1_19
Procedure: as §1, §2, §3, §4

REC1_5 (AGTG 184) mRNA = assay: TOGA analysis, REC1_5
Procedure: as §1, §2, §3, §4

REC1_17 (TCGT 199) mRNA = assay: TOGA analysis, REC1_17
Procedure: as §1, §2, §3, §4

[6] = tested on: REC1_6 (MspI ATCC 176) mRNA, ferritin light chain subunit; assay: TOGA analysis, REC1_6
Procedure: as §1, §2, §3, §4

[7] = tested on: REC1_12 (GCCC 232) mRNA, alpha smooth muscle actin; assay: TOGA analysis, REC1_12
Procedure: as §1, §2, §3, §4

[8] = tested on: REC1_20 (TTAC 210) mRNA, phosphofructo-1-kinase C isozyme; assay: TOGA analysis, REC1_20
Procedure: as §1, §2, §3, §4

[9] = TOGA, hypercholesterolemic plus lercanidipine racemate, eight weeks, H2 (normocholesterolemic)=1.0
[10] = REC1_18 TGGT 241, rabbit aorta, cholesterol 14 days
[11] = REC1_8 CCCG 243, rabbit aorta, 14 days cholesterol
[12] = REC1_21 TTCC 165, rabbit aorta, cholesterol 14 days
[13] = REC1_13 GCCC 216, rabbit aorta, 14 days cholesterol
[14] = REC1_19 TGTT 393, rabbit aorta, cholesterol 14 days
[15] = REC1_12 GCCC 232, rabbit aorta, 14 days cholesterol
[16] = REC1_20 TTAC 210, rabbit aorta, cholesterol 14 days

COC(=O)C1=C(C)NC(C)=C(C(=O)OC(C)(C)CN(C)CCC(c2ccccc2)c2ccccc2)C1c1cccc([N+](=O)[O-])c1 (racemic) [lercanidipine, lercanidipine hydrochloride]
level of gene expression (TOGA), 8 Week hypercholesterol + Lercanidipine ([1]; REC1_2, AATC 108, rabbit aorta, 8 weeks cholesterol + lercanidipine): 1143 | level of gene expression (TOGA), 14 Day hypercholesterol + Lercanidipine ([1]; REC1_2, AATC 108, rabbit aorta, 14 days cholesterol + lercanidipine): 545 | level of gene expression (TOGA), Normal + Lercanidipine ([1]; REC1_2, AATC 108, rabbit aorta, no cholesterol, lercanidipine): 301 | Relative Abundance Rec1_2, TOGA, F [1, 9]: 6.5 | level of gene expression, 8 Week hypercholesterol + Lercanidipine ([2]; REC1_18 TGGT 241, rabbit aorta, cholesterol 8 weeks): 935 | level of gene expression, 14 Day hypercholesterol + Lercanidipine [2, 10]: 112 | level of gene expression, Normal + Lercanidipine ([2]; REC1_18 TGGT 241, rabbit aorta, no cholesterol): 316 | Relative Abundance Rec1_18, TOGA, F [2, 9]: 5.0 | level of gene expression (TOGA), 8 Week hypercholesterol + Lercanidipine (REC1_16 (TCGG 195) mRNA; REC1_16 TCGG 195, rabbit aorta, 8 weeks cholesterol, lercanidipine): 530 | level of gene expression (TOGA), 14 Day hypercholesterol + Lercanidipine (REC1_16 (TCGG 195) mRNA; REC1_16 TCGG 195, rabbit aorta, 14 days cholesterol, lercanidipine): 1052 | level of gene expression (TOGA), Normal + Lercanidipine (REC1_16 (TCGG 195) mRNA; REC1_16 TCGG 195, rabbit aorta, no cholesterol, lercanidipine): 2028 | Relative Abundance Rec1_16, TOGA, F (REC1_16 (TCGG 195) mRNA; [9]): 0.2 | level of gene expression, 8 Week hypercholesterol + Lercanidipine ([3]; REC1_8 CCCG 243, rabbit aorta, 8 weeks cholesterol): 1136 | level of gene expression, 14 Day hypercholesterol + Lercanidipine [3, 11]: 373 | level of gene expression, Normal + Lercanidipine ([3]; REC1_8 CCCG 243, rabbit aorta, no cholesterol): 163 | Relative Abundance Rec1_8, TOGA, F [3, 9]: 13.1 | level of gene expression, 8 Week hypercholesterol + Lercanidipine ([4]; REC1_21 TTCC 165, rabbit aorta, cholesterol 8 weeks): 486 | level of gene expression, 14 Day hypercholesterol + Lercanidipine [4, 12]: 1507 | level of gene expression, Normal + Lercanidipine ([4]; REC1_21 TTCC 165, rabbit aorta, no cholesterol): 2064 | Relative Abundance Rec1_21, TOGA, F [4, 9]: 0.2 | level of gene expression, 8 Week hypercholesterol + Lercanidipine ([5]; REC1_13 GCCC 216, rabbit aorta, 8 weeks cholesterol): 4186 | level of gene expression, 14 Day hypercholesterol + Lercanidipine [5, 13]: 542 | level of gene expression, Normal + Lercanidipine ([5]; REC1_13 GCCC 216, rabbit aorta, no cholesterol): 575 | Relative Abundance Rec1_13, TOGA, F [5, 9]: 5.9 | level of gene expression, 8 Week hypercholesterol + Lercanidipine (REC1_19 (TGTT 393) mRNA; REC1_19 TGTT 393, rabbit aorta, cholesterol 8 weeks): 130 | level of gene expression, 14 Day hypercholesterol + Lercanidipine (REC1_19 (TGTT 393) mRNA; [14]): 373 | level of gene expression, Normal + Lercanidipine (REC1_19 (TGTT 393) mRNA; REC1_19 TGTT 393, rabbit aorta, no cholesterol): 569 | Relative Abundance Rec1_19, TOGA, F (REC1_19 (TGTT 393) mRNA; [9]): 0.2 | level of gene expression (TOGA), 8 Week hypercholesterol + Lercanidipine (REC1_5 (AGTG 184) mRNA; REC1_5, AGTG 184, rabbit aorta, 8 weeks cholesterol + lercanidipine): 188 | level of gene expression (TOGA), 14 Day hypercholesterol + Lercanidipine (REC1_5 (AGTG 184) mRNA; REC1_5, AGTG 184, rabbit aorta, 14 days cholesterol + lercanidipine): 699 | level of gene expression (TOGA), Normal + Lercanidipine (REC1_5 (AGTG 184) mRNA; REC1_5, AGTG 184, rabbit aorta, no cholesterol, lercanidipine): 1034 | Relative Abundance Rec1_5, TOGA, F (REC1_5 (AGTG 184) mRNA; [9]): 0.2 | level of gene expression (TOGA), 8 Week hypercholesterol + Lercanidipine (REC1_17 (TCGT 199) mRNA; REC1_17 TCGT 199, rabbit aorta, 8 weeks cholesterol, lercanidipine): 262 | level of gene expression (TOGA), 14 Day hypercholesterol + Lercanidipine (REC1_17 (TCGT 199) mRNA; REC1_17 TCGT 199, rabbit aorta, 14 days cholesterol, lercanidipine): 713 | level of gene expression (TOGA), Normal + Lercanidipine (REC1_17 (TCGT 199) mRNA; REC1_17 TCGT 199, rabbit aorta, no cholesterol, lercanidipine): 1434 | Relative Abundance Rec1_17, TOGA, F (REC1_17 (TCGT 199) mRNA; [9]): 0.15 | level of gene expression (TOGA), 8 Week hypercholesterol + Lercanidipine ([6]; REC1_6, ATCC 176, rabbit aorta, 8 weeks cholesterol + lercanidipine): 1302 | level of gene expression (TOGA), 14 Day hypercholesterol + Lercanidipine ([6]; REC1_6, ATCC 176, rabbit aorta, 14 days cholesterol + lercanidipine): 399 | level of gene expression (TOGA), Normal + Lercanidipine ([6]; REC1_6, ATCC 176, rabbit aorta, no cholesterol, lercanidipine): 120 | Relative Abundance Rec1_6, TOGA, F [6, 9]: 8.8 | level of gene expression, 8 Week hypercholesterol + Lercanidipine ([7]; REC1_12 GCCC 232, rabbit aorta, 8 weeks cholesterol): 622 | level of gene expression, 14 Day hypercholesterol + Lercanidipine [7, 15]: 5657 | level of gene expression, Normal + Lercanidipine ([7]; REC1_12 GCCC 232, rabbit aorta, no cholesterol): 4929 | Relative Abundance Rec1_12, TOGA, F [7, 9]: 0.1 | level of gene expression, 8 Week hypercholesterol + Lercanidipine ([8]; REC1_20 TTAC 210, rabbit aorta, cholesterol 8 weeks): 260 | level of gene expression, 14 Day hypercholesterol + Lercanidipine [8, 16]: 348 | level of gene expression, Normal + Lercanidipine ([8]; REC1_20 TTAC 210, rabbit aorta, no cholesterol): 607 | Relative Abundance Rec1_20, TOGA, F [8, 9]: 0.3

COC(=O)C1=C(C)NC(C)=C(C(=O)OC(C)(C)CN(C)CCC(c2ccccc2)c2ccccc2)[C@@H]1c1cccc([N+](=O)[O-])c1 [Lercanidipine (R)]
level of gene expression (TOGA), 14 Day hypercholesterol + Lercanidipine (R) ([1]; REC1_2, AATC 108, rabbit aorta, 14 days cholesterol + (R)-enantiomer): 1250 | level of gene expression, 14 Day hypercholesterol + Lercanidipine (R) [2, 10]: 330 | level of gene expression (TOGA), 14 Day hypercholesterol + Lercanidipine (R) (REC1_16 (TCGG 195) mRNA; REC1_16 TCGG 195, rabbit aorta, 14 days cholesterol, (R)-enantiomer): 1554 | level of gene expression, 14 Day hypercholesterol + Lercanidipine (R) [3, 11]: 539 | level of gene expression, 14 Day hypercholesterol + Lercanidipine (R) [4, 12]: 1574 | level of gene expression, 14 Day hypercholesterol + Lercanidipine (R) [5, 13]: 404 | level of gene expression, 14 Day hypercholesterol + Lercanidipine (R) (REC1_19 (TGTT 393) mRNA; [14]): 748 | level of gene expression (TOGA), 14 Day hypercholesterol + Lercanidipine (R) (REC1_5 (AGTG 184) mRNA; REC1_5, AGTG 184, rabbit aorta, 14 days cholesterol + (R)-enantiomer): 643 | level of gene expression (TOGA), 14 Day hypercholesterol + Lercanidipine (R) (REC1_17 (TCGT 199) mRNA; REC1_17 TCGT 199, rabbit aorta, 14 days cholesterol, (R)-enantiomer): 1117 | level of gene expression (TOGA), 14 Day hypercholesterol + Lercanidipine (R) ([6]; REC1_6, ATCC 176, rabbit aorta, 14 days cholesterol + (R)-enantiomer): 365 | level of gene expression, 14 Day hypercholesterol + Lercanidipine (R) [7, 15]: 3993 | level of gene expression, 14 Day hypercholesterol + Lercanidipine (R) [8, 16]: 669
